Laboratory results published in PubChem BioAssay AID330 (DTP/NCI, 2004).
Values joined by “and” are separate entries in the source; they are usually repeats but may differ in a detail not shown here. Identical values can stand only once. Inconclusive results and toxic doses are left out. How the source made its calls: active means survival T/C of 150% or more; inactive means T/C below 125% in these data.

System: P388 leukemia ip, CD2F1 mice, survival T/C
Test: NCI In Vivo Anticancer Drug Screen. Data for tumor model P388 Leukemia (intraperitoneal) in CD2F1 (CDF1) mice
Conditions: endpoint: median survival time, higher = longer survival
Procedure, shortened: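 Mice carrying the transplanted tumor received test compound or vehicle. Survival was recorded in each group, and the value is the treated-group measurement divided by that of the vehicle-treated control group.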

[1] = dose: 100.0 mg/kg/injection, schedule: Q01DX009 (ip), vehicle: saline with Tween-80
[2] = dose: 200.0 mg/kg/injection, schedule: Q01DX009 (ip), vehicle: saline with Tween-80
[3] = dose: 100.0 mg/kg/injection, schedule: Q04DX003 (ip), vehicle: saline with Tween-80
[4] = dose: 25.0 mg/kg/injection, schedule: Q01DX009 (ip), vehicle: saline with Tween-80
[5] = dose: 50.0 mg/kg/injection, schedule: Q01DX009 (ip), vehicle: saline with Tween-80
[6] = dose: 50.0 mg/kg/injection, schedule: Q01DX005 (ip), vehicle: Klucel (hydroxypropylcellulose) (HPC)
[7] = dose: 100.0 mg/kg/injection, schedule: Q01DX005 (ip), vehicle: Klucel (hydroxypropylcellulose) (HPC)
[8] = dose: 200.0 mg/kg/injection, schedule: Q01DX005 (ip), vehicle: Klucel (hydroxypropylcellulose) (HPC)

Measured: T/C

COc1cc2cc(c1Cl)NC(=O)CC(OC(=O)C(C)N(C)C(=O)C(C)C)C1(C)OC1C(C)C1CC(O)(NC(=O)O1)C(OC)/C=C/C=C(C)C2OC (stereo not drawn)
inactive: dose: 64.0 micrograms/kg/injection, schedule: Q01DX009 (ip), vehicle: distilled water + Tween-80 + alcohol 86 % of control
active: dose: 8.0 micrograms/kg/injection, schedule: Q01DX009 (ip), vehicle: distilled water + Tween-80 + alcohol 161 % of control | dose: 16.0 micrograms/kg/injection, schedule: Q01DX009 (ip), vehicle: distilled water + Tween-80 + alcohol 155 % of control and 179 % of control | dose: 32.0 micrograms/kg/injection, schedule: Q01DX009 (ip), vehicle: distilled water + Tween-80 + alcohol 154 % of control and 184 % of control

Nc1ccccc1-c1cncnc1N
inactive: [1] 98 % of control | [2] 101 % of control | dose: 400.0 mg/kg/injection, schedule: Q01DX009 (ip), vehicle: saline with Tween-80 106 % of control

CC(NC(=O)C(C)NC(=O)OC(C)(C)C)C(=O)O (stereo not drawn)
inactive: dose: 50.0 mg/kg/injection, schedule: Q01DX005 (ip), vehicle: saline with Tween-80 100 % of control | dose: 100.0 mg/kg/injection, schedule: Q01DX005 (ip), vehicle: saline with Tween-80 101 % of control | dose: 200.0 mg/kg/injection, schedule: Q01DX005 (ip), vehicle: saline with Tween-80 101 % of control

C/C=C/C(C#N)O[Si](C)(C)C (stereo not drawn)
inactive: dose: 3.75 mg/kg/injection, schedule: Q01DX005 (ip), vehicle: saline 97 % of control | dose: 7.5 mg/kg/injection, schedule: Q01DX005 (ip), vehicle: saline 113 % of control | dose: 15.0 mg/kg/injection, schedule: Q01DX005 (ip), vehicle: saline 99 % of control

C=C1CCN(c2ccc(OCC)cc2)C1=O
inactive: dose: 4.0 mg/kg/injection, schedule: Q01DX009 (ip), vehicle: saline + alcohol 102 % of control and 113 % of control and 94 % of control | dose: 8.0 mg/kg/injection, schedule: Q01DX009 (ip), vehicle: saline + alcohol 101 % of control and 108 % of control and 91 % of control | dose: 16.0 mg/kg/injection, schedule: Q01DX009 (ip), vehicle: saline + alcohol 100 % of control and 91 % of control | dose: 32.0 mg/kg/injection, schedule: Q01DX009 (ip), vehicle: saline + alcohol 106 % of control and 111 % of control and 94 % of control | dose: 64.0 mg/kg/injection, schedule: Q01DX009 (ip), vehicle: saline + alcohol 100 % of control and 108 % of control and 95 % of control

C#CCNC1=C(C)C(=O)C2=C(C1=O)[C@H](COC(N)=O)[C@]1(OC)[C@@H]3N[C@@H]3CN21
active: dose: 12.0 mg/kg/injection, schedule: Q01DX001 (ip), vehicle: distilled water + Tween-80 163 % of control | dose: 24.0 mg/kg/injection, schedule: Q01DX001 (ip), vehicle: distilled water + Tween-80 173 % of control | dose: 48.0 mg/kg/injection, schedule: Q01DX001 (ip), vehicle: distilled water + Tween-80 165 % of control and 265 % of control | dose: 96.0 mg/kg/injection, schedule: Q01DX001 (ip), vehicle: distilled water + Tween-80 203 % of control

CC(C)(C)OC(=O)C(C(=O)OC(C)(C)C)=C1C(=O)OCC1(C)C
inactive: dose: 100.0 mg/kg/injection, schedule: Q04DX003 (ip), vehicle: saline 95 % of control | dose: 200.0 mg/kg/injection, schedule: Q04DX003 (ip), vehicle: saline 103 % of control | dose: 400.0 mg/kg/injection, schedule: Q04DX003 (ip), vehicle: saline 98 % of control

O=C1CSC(c2ccc(Cl)cc2)N1CCN1C(=O)CSC1c1ccc(Cl)cc1 (stereo not drawn)
inactive: [3] 95 % of control | dose: 200.0 mg/kg/injection, schedule: Q04DX003 (ip), vehicle: saline with Tween-80 93 % of control | dose: 400.0 mg/kg/injection, schedule: Q04DX003 (ip), vehicle: saline with Tween-80 88 % of control

Oc1ccccc1C=NCCN1CC1.Oc1ccccc1C=NCCN1CC1.[Co+2]
inactive: dose: 4.7 mg/kg/injection, schedule: Q01DX009 (ip), vehicle: saline 103 % of control | dose: 9.4 mg/kg/injection, schedule: Q01DX009 (ip), vehicle: saline 102 % of control | dose: 18.8 mg/kg/injection, schedule: Q01DX009 (ip), vehicle: saline 100 % of control | dose: 37.5 mg/kg/injection, schedule: Q01DX009 (ip), vehicle: saline 100 % of control and 97 % of control

Cn1c(O)c(N=O)c(=O)n(C)c1=O
inactive: [4] 105 % of control | [5] 100 % of control | [1] 111 % of control

CC(=O)OC1CCC2C3CCc4cc(OP(=O)(N5CC5)N5CC5)ccc4C3CCC12C (stereo not drawn)
inactive: [5] 92 % of control | [1] 114 % of control | [2] 108 % of control

O=C(O)C(O)C(O)C1[O][Sb]([c]2ccc([N+](=O)[O-])cc2)[O]C1CO (stereo not drawn)
inactive: dose: 50.0 mg/kg/injection, schedule: Q01DX005 (ip), vehicle: saline 98 % of control | dose: 100.0 mg/kg/injection, schedule: Q01DX005 (ip), vehicle: saline 107 % of control | dose: 200.0 mg/kg/injection, schedule: Q01DX005 (ip), vehicle: saline 118 % of control

CC(=O)Oc1ccc(OC(C)=O)c2c(OC(C)=O)c(C(CC=C(C)C)OC(C)=O)cc(OC(C)=O)c12 (stereo not drawn)
inactive: dose: 12.5 mg/kg/injection, schedule: Q04DX002 (ip), vehicle: saline with Tween-80 108 % of control | dose: 25.0 mg/kg/injection, schedule: Q04DX002 (ip), vehicle: saline with Tween-80 117 % of control

C[n+]1c(/C=C\c2ccc(Cl)cc2)ccc2ccccc21
inactive: dose: 1.56 mg/kg/injection, schedule: Q01DX009 (ip), vehicle: saline with Tween-80 100 % of control | dose: 3.13 mg/kg/injection, schedule: Q01DX009 (ip), vehicle: saline with Tween-80 113 % of control

O=C1NC(=O)C2(CCCc3ccc(N(CCCl)CCCl)cc32)N1 (stereo not drawn)
inactive: dose: 0.38 mg/kg/injection, schedule: Q04DX003 (ip), vehicle: saline with Tween-80 108 % of control | dose: 0.75 mg/kg/injection, schedule: Q04DX003 (ip), vehicle: saline with Tween-80 104 % of control | dose: 1.5 mg/kg/injection, schedule: Q04DX003 (ip), vehicle: saline with Tween-80 104 % of control
active: dose: 12.5 mg/kg/injection, schedule: Q01DX009 (ip), vehicle: saline with Tween-80 159 % of control | [4] 172 % of control | dose: 50.0 mg/kg/injection, schedule: Q04DX003 (ip), vehicle: saline with Tween-80 181 % of control | [3] 181 % of control | dose: 132.0 mg/kg/injection, schedule: Q04DX003 (ip), vehicle: saline with Tween-80 177 % of control

CC(=O)Nc1ccc(/C=N/NC(=O)CNC(=O)Nc2cccc(Cl)c2Cl)cc1
inactive: [4] 99 % of control | [5] 97 % of control | [1] 89 % of control | [2] 93 % of control

CC(NC(=O)C(c1ccccc1)c1ccccc1)C(=O)O (stereo not drawn)
inactive: [6] 97 % of control | [7] 107 % of control | [8] 97 % of control

Cn1c(C(=O)N/N=C\C2OC3OC(C)(C)OC3C3OC(C)(C)OC23)cc2cc(OCc3ccccc3)ccc21 (stereo not drawn)
inactive: [6] 103 % of control | [7] 101 % of control | [8] 97 % of control

CC1(C)CCC2(C(=O)OC3OC(CO)C(O)C(O)C3O)CCC3(C)C(=CCC4C5(C)CCC(OC6OC(CO)C(O)C(OC7OC(CO)C(O)C(O)C7O)C6O)C(C)(C)C5CCC43C)C2C1 (stereo not drawn)
inactive: dose: 6.25 mg/kg/injection, schedule: Q01DX005 (ip), vehicle: Klucel (hydroxypropylcellulose) (HPC) 102 % of control | dose: 12.5 mg/kg/injection, schedule: Q01DX005 (ip), vehicle: Klucel (hydroxypropylcellulose) (HPC) 98 % of control | dose: 25.0 mg/kg/injection, schedule: Q01DX005 (ip), vehicle: Klucel (hydroxypropylcellulose) (HPC) 116 % of control | [6] 105 % of control

CSc1c(C#N)c(N)nn1-c1ccccn1
inactive: dose: 100.0 mg/kg/injection, schedule: Q04DX002 (ip), vehicle: saline with Tween-80 100 % of control | dose: 200.0 mg/kg/injection, schedule: Q04DX002 (ip), vehicle: saline with Tween-80 98 % of control | dose: 400.0 mg/kg/injection, schedule: Q04DX002 (ip), vehicle: saline with Tween-80 99 % of control

COc1ccc(C=NC#N)cc1
inactive: dose: 50.0 mg/kg/injection, schedule: Q01DX009 (ip), vehicle: Klucel (hydroxypropylcellulose) (HPC) 101 % of control | dose: 100.0 mg/kg/injection, schedule: Q01DX009 (ip), vehicle: Klucel (hydroxypropylcellulose) (HPC) 93 % of control | dose: 200.0 mg/kg/injection, schedule: Q01DX009 (ip), vehicle: Klucel (hydroxypropylcellulose) (HPC) 88 % of control
